How the values were obtained:
Type in all cases: in vivo
[1] = tested on: sedge, umbrella (small-flower umbrella sedge, Cyperus difformis); test: Test B flooded paddy test, umbrella sedge; conditions: Flood, 250 g ai/ha, applied to paddy water, 2-leaf stage, visual evaluation after 13 to 15 d
How it was run: (§1)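 Each response is a visual 0–100 rating made against untreated controls, where 0 is no effect and 100 is complete control; a dash marks no result. Compound was dosed into 3 cm paddy water over 2-leaf plants, assessed after 13 to 15 d.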

[2] = tested on: ragweed (common ragweed, Ambrosia elatior); test: Test A postemergence, ragweed; conditions: 0 to 100 scale
How it was run: (§2)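 Visual injury scores (0 no effect to 100 complete control) were assigned about 10 d after treatment by comparison with untreated controls. Test chemicals, formulated in a surfactant-containing non-phytotoxic solvent, were applied to soil at planting or to plants at the one- to two-leaf stage.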

rice (Oryza sativa) = test: Test B flooded paddy test, rice; conditions: Flood, 250 g ai/ha, applied to paddy water, 2-leaf stage, visual evaluation after 13 to 15 d
How it was run: as §1

kochia (Kochia scoparia) [3] = test: Test A postemergence, kochia; conditions: 0 to 100 scale
How it was run: as §2

[4] = tested on: wheat (Triticum aestivum); test: Test A postemergence, wheat; conditions: 0 to 100 scale
How it was run: as §2

[5] = tested on: barnyardgrass (Echinochloa crus-galli); test: Test A postemergence, barnyardgrass; conditions: 0 to 100 scale
How it was run: as §2

[6] = tested on: ducksalad (Heteranthera limosa); test: Test B flooded paddy test, ducksalad; conditions: Flood, 250 g ai/ha, applied to paddy water, 2-leaf stage, visual evaluation after 13 to 15 d
How it was run: as §1

[7] = tested on: barnyardgrass (Echinochloa crus-galli); test: Test A preemergence, barnyardgrass; conditions: 0 to 100 scale, 0 is no effect, 100 is complete control
How it was run: as §2

[8] = tested on: foxtail, giant (Setaria faberii); test: Test A postemergence, giant foxtail; conditions: 0 to 100 scale
How it was run: as §2

[9] = tested on: ryegrass, Italian (Lolium multiflorum); test: Test A preemergence, Italian ryegrass; conditions: 0 to 100 scale, 0 is no effect, 100 is complete control
How it was run: as §2

[10] = tested on: ragweed (common ragweed, Ambrosia elatior); test: Test A preemergence, ragweed; conditions: 0 to 100 scale, 0 is no effect, 100 is complete control
Text: Seeds of plant species selected from barnyardgrass (Echinochloa crus-galli), kochia (Kochia scoparia), ragweed (common ragweed, Ambrosia elatior), ryegrass, Italian (Lolium multiflorum), foxtail, giant (Setaria faberii), foxtail, green (Setaria viridis), and pigweed (Amaranthus retroflexus) were planted into a blend of loam soil and sand and treated preemergence with a directed soil spray using test chemicals formulated in a non-phytotoxic solvent mixture which included a surfactant.
At the same time, plants selected from these weed species and also wheat (Triticum aestivum), corn (Zea mays), blackgrass (Alopecurus myosuroides), and galium (catchweed bedstraw, Galium aparine) were planted in pots containing the same blend of loam soil and sand and treated with postemergence applications of test chemicals formulated in the same manner. Plants ranged in height from 2 to 10 cm and were in the one- to two-leaf stage for the postemergence treatment. Treated plants and untreated controls were maintained in a greenhouse for approximately 10 d, after which time all treated plants were compared to untreated controls and visually evaluated for injury. Plant response ratings, summarized in Table A, are based on a 0 to 100 scale where 0 is no effect and 100 is complete control. A dash (-) response means no test result.

kochia (Kochia scoparia) [11] = test: Test A preemergence, kochia; conditions: 0 to 100 scale, 0 is no effect, 100 is complete control
How it was run: as §2

[12] = tested on: barnyardgrass (Echinochloa crus-galli); test: Test B flooded paddy test, barnyardgrass; conditions: Flood, 250 g ai/ha, applied to paddy water, 2-leaf stage, visual evaluation after 13 to 15 d
How it was run: as §1

[13] = tested on: blackgrass (Alopecurus myosuroides); test: Test A postemergence, blackgrass; conditions: 0 to 100 scale
How it was run: as §2

[14] = tested on: foxtail, giant (Setaria faberii); test: Test A preemergence, giant foxtail; conditions: 0 to 100 scale, 0 is no effect, 100 is complete control
How it was run: as §2

[15] = tested on: pigweed (Amaranthus retroflexus); test: Test A postemergence, pigweed; conditions: 0 to 100 scale
How it was run: as §2

[16] = tested on: pigweed (Amaranthus retroflexus); test: Test A preemergence, pigweed; conditions: 0 to 100 scale, 0 is no effect, 100 is complete control
How it was run: as §2

[17] = tested on: ryegrass, Italian (Lolium multiflorum); test: Test A postemergence, Italian ryegrass; conditions: 0 to 100 scale
How it was run: as §2

[18] = tested on: galium (catchweed bedstraw, Galium aparine); test: Test A postemergence, galium; conditions: 0 to 100 scale
How it was run: as §2

corn (Zea mays) = test: Test A postemergence, corn; conditions: 0 to 100 scale, 0 no effect, 100 complete control
How it was run: as §2

[19] = 500 g ai/ha, 0 is no effect, 100 is complete control
[20] = 31 g ai/ha, 0 no effect, 100 complete control
[21] = 125 g ai/ha, 0 no effect, 100 complete control

C[C@@H](Nc1ncc(C(F)(F)F)c(N)n1)c1coc2ccccc12 [Compound 52, N2-[(1R)-1-(3-benzofuranyl)ethyl]-5-(trifluoromethyl)-2,4-pyrimidinediamine]
pest or weed control at 250 g/ha ([1]; Cyperus difformis, 360 h, read-out: Plant response rating, Sedge, Umbrella (0 to 100 scale, 0 is no effect, 100 is complete control)): 95%
Ragweed plant response rating [2, 19]: 100
pest or weed control at 125 g/ha ([2]; Ambrosia artemisiifolia, post-emergence, 240 h, 125 g ai/ha, 0 no effect, 100 complete control, read-out: Plant response rating, Ragweed): 80%
plant injury at 250 g/ha (rice (Oryza sativa); Oryza sativa, 360 h, read-out: Plant response rating, Rice (0 to 100 scale, 0 is no effect, 100 is complete control)): 10%
Kochia plant response rating (kochia (Kochia scoparia) [3]; [19]): 90
pest or weed control at 125 g/ha (kochia (Kochia scoparia) [3]; Bassia scoparia, post-emergence, 240 h, 125 g ai/ha, 0 no effect, 100 complete control, read-out: Plant response rating, Kochia): 90%
Wheat plant response rating [4, 19]: 30
plant injury at 125 g/ha ([4]; Triticum aestivum, post-emergence, 240 h, 125 g ai/ha, 0 no effect, 100 complete control, read-out: Plant response rating, Wheat): 0%
Barnyardgrass plant response rating [5, 19]: 90
pest or weed control at 125 g/ha ([5]; Echinochloa crus-galli, post-emergence, 240 h, 125 g ai/ha, 0 no effect, 100 complete control, read-out: Plant response rating, Barnyardgrass): 30%
pest or weed control at 250 g/ha ([6]; Heteranthera limosa, 360 h, read-out: Plant response rating, Ducksalad (0 to 100 scale, 0 is no effect, 100 is complete control)): 100%
Barnyardgrass plant response rating ([7]; 125 g ai/ha): 70
Barnyardgrass plant response rating ([7]; 500 g ai/ha): 100
Foxtail, Giant plant response rating [8, 19]: 90
pest or weed control at 125 g/ha ([8]; Setaria faberi, post-emergence, 240 h, 125 g ai/ha, 0 no effect, 100 complete control, read-out: Plant response rating, Foxtail, Giant): 40%
Ryegrass, Italian plant response rating ([9]; 125 g ai/ha): 80
Ryegrass, Italian plant response rating ([9]; 500 g ai/ha): 90
Ragweed plant response rating ([10]; 125 g ai/ha): 100
Ragweed plant response rating ([10]; 500 g ai/ha): 100
Kochia plant response rating (kochia (Kochia scoparia) [11]; 125 g ai/ha): 90
Kochia plant response rating (kochia (Kochia scoparia) [11]; 500 g ai/ha): 100
pest or weed control at 250 g/ha ([12]; Echinochloa crus-galli, 360 h, read-out: Plant response rating, Barnyardgrass (0 to 100 scale, 0 is no effect, 100 is complete control)): 90%
Blackgrass plant response rating [13, 19]: 90
pest or weed control at 125 g/ha ([13]; Alopecurus myosuroides, post-emergence, 240 h, 125 g ai/ha, 0 no effect, 100 complete control, read-out: Plant response rating, Blackgrass): 50%
Foxtail, Giant plant response rating ([14]; 125 g ai/ha): 90
Foxtail, Giant plant response rating ([14]; 500 g ai/ha): 100
Pigweed plant response rating [15, 19]: 100
pest or weed control at 125 g/ha ([15]; Amaranthus retroflexus, post-emergence, 240 h, 125 g ai/ha, 0 no effect, 100 complete control, read-out: Plant response rating, Pigweed): 100%
Pigweed plant response rating ([16]; 125 g ai/ha): 100
Pigweed plant response rating ([16]; 500 g ai/ha): 100
Ryegrass, Italian plant response rating [17, 19]: 100
pest or weed control at 125 g/ha ([17]; Lolium multiflorum, post-emergence, 240 h, 125 g ai/ha, 0 no effect, 100 complete control, read-out: Plant response rating, Ryegrass, Italian): 60%
Galium plant response rating [18, 19]: 90
pest or weed control at 125 g/ha ([18]; Galium, post-emergence, 240 h, 125 g ai/ha, 0 no effect, 100 complete control, read-out: Plant response rating, Galium): 80%

C[C@@H](Nc1ncc(C(F)(F)F)c(N)n1)c1cc2ccccc2[s+]1[O-] (some centres unmarked) [Compound 113]
Plant response rating, Sedge, Umbrella (0 to 100 scale, 0 is no effect, 100 is complete control) [1]: 0
Plant response rating, Ragweed [2, 20]: 0
Plant response rating, Ragweed [2, 21]: 40
Plant response rating, Rice (0 to 100 scale, 0 is no effect, 100 is complete control) (rice (Oryza sativa)): 0
Plant response rating, Kochia (kochia (Kochia scoparia) [3]; [20]): 30
Plant response rating, Kochia (kochia (Kochia scoparia) [3]; [21]): 70
Plant response rating, Wheat [4, 20]: 0
Plant response rating, Wheat [4, 21]: 0
Plant response rating, Barnyardgrass [5, 20]: 0
Plant response rating, Barnyardgrass [5, 21]: 0
Plant response rating, Ducksalad (0 to 100 scale, 0 is no effect, 100 is complete control) [6]: 0
Barnyardgrass plant response rating ([7]; 31 g ai/ha): 0
Barnyardgrass plant response rating ([7]; 125 g ai/ha): 0
Plant response rating, Foxtail, Giant [8, 20]: 0
Plant response rating, Foxtail, Giant [8, 21]: 0
Ryegrass, Italian plant response rating ([9]; 31 g ai/ha): 0
Ryegrass, Italian plant response rating ([9]; 125 g ai/ha): 30
Ragweed plant response rating ([10]; 31 g ai/ha): 0
Ragweed plant response rating ([10]; 125 g ai/ha): 20
Kochia plant response rating (kochia (Kochia scoparia) [11]; 31 g ai/ha): 20
Kochia plant response rating (kochia (Kochia scoparia) [11]; 125 g ai/ha): 80
Plant response rating, Barnyardgrass (0 to 100 scale, 0 is no effect, 100 is complete control) [12]: 0
Plant response rating, Blackgrass [13, 20]: 0
Plant response rating, Blackgrass [13, 21]: 0
Foxtail, Giant plant response rating ([14]; 31 g ai/ha): 0
Foxtail, Giant plant response rating ([14]; 125 g ai/ha): 10
Plant response rating, Corn (corn (Zea mays); 31 g ai/ha): 20
Plant response rating, Corn (corn (Zea mays); 125 g ai/ha): 0
Plant response rating, Pigweed [15, 20]: 40
Plant response rating, Pigweed [15, 21]: 100
Plant response rating, Ryegrass, Italian [17, 20]: 0
Plant response rating, Ryegrass, Italian [17, 21]: 0
Plant response rating, Galium [18, 20]: 40
Plant response rating, Galium [18, 21]: 70
